The values below come from patent US20220047617A1, “Nucleic acid nanocarrier drug, preparation method, pharmaceutical composition and use thereof” (BAI YAO ZHI DA (BEIJING) NANOBIO TECHNOLOGY CO., LTD., priority 2018, published 2022).

In series [1] the test system is MCF-7 cells. The series can be described thus: Cytotoxicity in MCF-7 cells (CellTiter 96 AQueous One Solution), Embodiment 33. Type of series: cell-based, human. As to conditions: MCF-7, 96 hours. On the procedure: Cytotoxicity of DNAh-Biotin-EGFRapt-Cy5-Mit Nanoparticles in MCF-7 Cells
(§1) 1) Harvesting cells in a logarithmic growth phase, taking a small amount and staining with trypan blue for counting to ensure that the cell viability reaches more than 98%;
(§2) 2) adjusting the cell density to 2.22×10^4/mL with a growth medium;
(§3) 3) planting 90 μL/well of cell suspension into the 96-well plate, herein the number of cells per well in the plate is 2000;
(§4) 4) placing the planted cell plate in the incubator at 37 DEG C. and incubating overnight;
(§5) 5) performing 3.16-fold gradient dilution on the compound at 9 concentration points;
6) taking out the cell culture plate, and adding 10 μL/well of 10× concentration drug working solution to the corresponding wells of the cell culture plate, herein three replicate holes are made for each concentration, and the final drug action concentration is shown in Table 144 below;
7) placing the cell culture plate in the incubator and continuously incubating for 96 hours […]
(§6) 11) using a microplate reader to read a OD490 value of each well in the cell plate; and […]
(§7) GraphPad Prism 5.0 software is used to process data graphically. […] A calculation formula of the survival rate is as follows, the IC50 may be automatically calculated in GraphPad Prism 5.0. […]

The subject of series [2] is MV4-11 cells. The series can be described thus: Cytotoxicity in MV4-11 cells (CellTiter 96 AQueous One Solution), Embodiment 25. Format: cell-based. As to conditions: MV4-11, 96 hours. The procedure:
as §1
(§8) 2) adjusting the cell density to 1.11×10^5/mL with a growth medium;
(§9) 3) planting 90 μL/well of cell suspension into the 96-well plate, herein the number of cells per well in the plate is 10000;
as §4, §5
6) taking out the cell culture plate, and adding 10 μL/well of 10× concentration drug working solution to the corresponding wells of the cell culture plate, herein three replicate holes are made for each concentration, and the final drug action concentration is shown in Table 124 below;
(§10) 7) placing the cell culture plate in the incubator and continuously incubating for 96 hours; […]
as §6, §7

The subject of series [3] is MCF-7 cells. Description: Cytotoxicity in MCF-7 cells (CellTiter 96 AQueous One Solution), Embodiment 30. Format: cell-based. As to conditions: Homo sapiens, MCF7, MCF-7, 96 hours. On the procedure:
as §1, §2, §3, §4, §5
(§11) 6) taking out the cell culture plate, and adding 10 μL/well of 10× concentration drug working solution to the corresponding wells of the cell culture plate, herein three replicate holes are made for each concentration, and the final drug action concentration is shown in Table 134 below;
as §10, §6, §7

For series [4], the system named is SKOV3 cells. The series can be described thus: Cytotoxicity in SKOV3 cells (CellTiter 96 AQueous One Solution), Embodiment 30. Type of series: cell-based. As to conditions: Homo sapiens, SK-OV-3, SKOV3, 96 hours. The procedure: as §1, §2, §3, §4, §5, §11, §10, §6, §7
In series [5] the test system is HCT116 cells. The series can be described thus: Cytotoxicity in HCT116 cells (CellTiter-Glo), Embodiment 29. Format: cell-based. On the procedure: Cytotoxicity Research of RNAh-Bio-670-Docetaxel Nanoparticles in HCT116 Cells
1) Cell Culturing and Plating
HCT116 cells are cultured at 37 DEG C. and 5% CO2 in the DMEM basal medium in which 10% FBS and 1% PS are respectively added. The cell density used in the experiment is above 80%. The cells are collected, and centrifuged at 1000 rpm for 4 minutes, the medium is resuspended, the cell concentration is adjusted, and it is added to the 96-well plate in a volume of 5000 cells per 90 μL, and each group has 4 replicate wells.
2) Gradient drug concentration preparation and administration
After 24 hours, the compound solution is transferred to each well, 200 nM of each sample per well, and 4 replication wells.
Medium (untreated) control: only cells without compound treatment
Blank control: without cells, used for instrument zero calibration
3) Cell Culture after Administration
4) Cells Treated by Detection Kit
The well plate is brought to a room temperature in advance and stands for 30 minutes. 100 μL of a CellTiter-Glo® reagent is added to each well of the well plate and mixed for 2 minutes on a shaker to promote cell lysis. The Perkin Elmer Envision 2104 Multilabel Reader is used to read values and the values are recorded. […]
The acquired experiment data is analyzed and processed by using excel software, and GraphPad Prism 5 software is used for curve fitting analysis.

The subject of series [6] is MV4-11 cells. The series can be described thus: Cytotoxicity in MV4-11 cells (CellTiter 96 AQueous One Solution), Embodiment 37. Format: cell-based.
Procedure: 9) adding 20 μL/well of the CellTiter 96® AQueous One Solution reagent to the cell culture plate; […]
Series [7] deals with MCF-7 cells. The series can be described thus: Cytotoxicity in MCF-7 cells (CellTiter 96 AQueous One Solution), Embodiment 37. Format: cell-based, human. The procedure: Cytotoxicity of DNAh-Biotin-EGFRapt-Cy5-Idarubicin Nanoparticles in MCF-7 and MV4-11 Cells
as §1, §2, §3, §4, §5
6) taking out the cell culture plate, and adding 10 μL/well of 10× concentration drug working solution to the corresponding wells of the cell culture plate, herein three replicate holes are made for each concentration, and the final drug action concentration is shown in Table 154 below;
as §10, §6, §7

Series [8] deals with RPMI 8226 cells. The series can be described thus: Cytotoxicity in RPMI 8226 cells (CellTiter 96 AQueous One Solution), Embodiment 21. As to conditions: Homo sapiens, RPMI 8226, 96 hours. Type of series: cell-based. The procedure: as §1, §8, §9, §4, §5
7) placing the cell culture plate in the incubator and continuously incubating for 96 hours;
8) placing the CellTiter 96® AQueous One Solution reagent at the room temperature and thawing for 90 minutes or thawing in a water bath at 37 DEG C., and placing at the room temperature and equilibrating for 30 minutes;
9) adding 20 μL/well of the CellTiter 96® AQueous One Solution reagent to the cell culture plate;
10) placing the cell culture plate in the incubator at 37 DEG C. and continuously incubating for 3 hours;
11) using a microplate reader to read a OD490 value of each well in the cell plate; and
12) data processing and analysis.
as §7

A short description of series [9]: TM value detection by solubility curve method (SYBR Green I). Type of series: physicochemical. As to conditions: extension fragment deformation+core short-sequence RNA nanoparticles; temperature at ½ RFUmax in 20 to 90 DEG C. taken as Tm. On the procedure:
A solubility curve method is used to detect TM values of the 7 groups of the extension fragment deformation+core short-sequence RNA nanoparticles, and the samples are consistent with the potential samples.
(1) After the sample is diluted with ultrapure water, 5 μg of the diluted sample is mixed with 2 μL of SYBR Green I dye (diluted by 1:200), a final volume is 20 μL, and the dilution concentration is as follows:
(2) It is incubated for 30 min in the dark at a room temperature; and
(3) On-machine detection is performed, a program is set to start at 20 DEG C., the temperature rises per second from 0.1 DEG C. to 95 DEG C., and reading is performed every 5 s.
Due to the particularity of the RNA samples, a temperature corresponding to ½ RFUmax in a range of 20 to 90 DEG C. is used as a sample Tm value in this test.
A solubility curve method is used to detect TM values of the 7 groups of the extension fragment deformation+core short-sequence DNA nanoparticles, and the samples are consistent with the potential samples.

Setting [10] is: compared with DNAh targeted fluorescent carrier.

Changes are numbered by the printed parent chain. Where two headings read alike, the source gives them in different places. {Biotin} = biotin label attached at strand end

As to `O=C1c2c(O)ccc(O)c2C(=O)c2c(NCCNCCO)ccc(NCCNCCO)c21` [Mit (mitoxantrone)], the IC50 – broadly, the concentration needed to halve the response being measured – in series [1] amounted to 538 nM. Consider `Nc1ccn([C@@H]2O[C@H](CO)[C@@H](O)[C@@H]2O)c(=O)n1` [cytarabine], for which it took 1250 nM to reach half-maximal inhibition in series [2] (Homo sapiens) (IC50). The “toxicity to the MV4-11 cells (in words)” value in [2] (setting [10]) was “toxic”. For the molecule `CC(=O)O[C@@]12CO[C@@H]1C[C@H](O)[C@@]1(C)C(=O)[C@H](O)C3=C(C)[C@@H](OC(=O)[C@H](O)[C@@H](NC(=O)OC(C)(C)C)c4ccccc4)C[C@@](O)([C@@H](OC(=O)c4ccccc4)[C@H]21)C3(C)C` [docetaxel], the IC50 in series [3] (read-out: IC50), in [3] (read-out: IC50 acting on the MCF-7 cells), in series [4] (read-out: IC50) and in series [4] (read-out: IC50 acting on the SKOV3 cells) was less than 1 nM each time. Moreover, the cell survival rate in series [5] (HCT116, treatment time 72 h, drug concentration 200 nM) stood at 10.68%. Also, the inhibition (commonly the percentage by which the read-out fell short of the control) at 0.2 µM in series [5] (Homo sapiens, HCT-116, HCT116, drug concentration 200 nM, 72 hours, read-out: cell inhibition rates) was 50.5%.

With `CC(=O)[C@]1(O)Cc2c(O)c3c(c(O)c2[C@@H](O[C@H]2C[C@H](N)[C@H](O)[C@H](C)O2)C1)C(=O)c1ccccc1C3=O` [idarubicin], the IC50 was less than 1 nM in series [6] (Homo sapiens, MV4-11 cell line, 96 hours incubation, CellTiter 96 AQueous One Solution, OD490) and 72.5 nM in series [7] (Homo sapiens, MCF7, MCF-7 cell line, 96 hours incubation, CellTiter 96 AQueous One Solution, OD490). The “toxicity to the MV4-11 cells (in words)” value in [6] (MV4-11, 96 hours, compared with DNAh targeted fluorescent carrier) is on record as “toxic”. The “toxicity to the MCF-7 cells (in words)” value in series [7] (MCF-7, 96 hours, compared with DNAh targeted fluorescent carrier) is “toxic”.

As to `Nc1cccc2c1CN(C1CCC(=O)NC1=O)C2=O` (stereo not shown) [lenalidomide, 3-(7-amino-3-oxo-1H-isoindol-2-yl) piperidine-2,6-dione], the IC50 in series [8] (read-out: IC50) and in series [8] (read-out: IC50 acting on the RPMI 8226 cells) was 72300 nM each time. As to `O=C1c2c(O)ccc(O)c2C(=O)c2c(NCCNCCO)ccc(NCCNCCO)c21` [mitoxantrone], the “toxicity to the MCF-7 cells (in words)” value in [1] (setting [10]) was “toxic”.

B1: R-21: extension fragment deformation+core short-sequence RNA nanoparticles, strands SEQ ID NO: 138-140, a-strand 3′-biotin, 2′F (nucleic acid)
chain 1: GCGGCGAGCGGCGACGAGCGUUGCGGCCGGAGGCCGG
chain 2: CCGGCCUCCGGCCGCUUCGGCGCCAGCCGCC
chain 3: GGCGGCAGGCGCCCAUAGCCGUCGCCGCUCGCCGC
modifications: RNA nanoparticle strands, 2'-fluoro modified, a-strand 3'-biotin, positions not given here
B1: in [9], the TM value came to 65.0 °C.

B2: R-17: extension fragment deformation+core short-sequence RNA nanoparticles, strands SEQ ID NO: 126-128, a-strand 3′-biotin, 2′F (nucleic acid)
chain 1: B1 chain 1 with C15G, C24G
chain 2: B1 chain 2 with G14C, G20C
chain 3: B1 chain 3 with C12G, G21C
modifications: chain 1: 3' {Biotin}, sugars by position and backbone not given here; chain 2: sugars by position and backbone not given here; chain 3: sugars by position and backbone not given here; RNA nanoparticle, 2'-fluoro modified
Regarding B2, the TM value in [9] was 55.2 °C.

B3: R-18: extension fragment deformation+core short-sequence RNA nanoparticles, strands SEQ ID NO: 129-131, a-strand 3′-biotin, 2′F (nucleic acid)
chain 1: B1 chain 1 with C15G, G16C, G23C, C24G
chain 2: B1 chain 2 with G14C, C15G
chain 3: B1 chain 3 with C20G, G21C
modifications: chain 1: 3' {Biotin}, sugars by position and backbone not given here; chain 2: sugars by position and backbone not given here; chain 3: sugars by position and backbone not given here; RNA nanoparticle, 2'-fluoro modified
On to B3, for which the TM value in [9] worked out at 54.5 °C.

B4: R-15: extension fragment deformation+core short-sequence RNA nanoparticles, strands SEQ ID NO: 120-122, a-strand 3′-biotin, 2′F (nucleic acid)
chain 1: B1 chain 1 with C15G, C24G
chain 2: B1 chain 2 with G14C, C21G
chain 3: B1 chain 3 with G11C, G21C
modifications: chain 1: 3' {Biotin}, sugars by position and backbone not given here; chain 2: sugars by position and backbone not given here; chain 3: sugars by position and backbone not given here; RNA nanoparticle, 2'-fluoro modified
Take B4: the TM value in series [9] is 57.5 °C.

B5: R-19: extension fragment deformation+core short-sequence RNA nanoparticles, strands SEQ ID NO: 132-134, a-strand 3′-biotin, 2′F (nucleic acid)
chain 1: B1 chain 1 with C15G, G16C, G23C, C24G
chain 2: B1 chain 2 with G14C, C15G, G22C
chain 3: B1 chain 3 with C10G, C20G, G21C
modifications: RNA nanoparticle strands, 2'-fluoro modified, a-strand 3'-biotin, positions not given here
In turn, B5 displayed a TM value in series [9] of 54.0 °C.

B6: R-16: extension fragment deformation+core short-sequence RNA nanoparticles, strands SEQ ID NO: 123-125, a-strand 3′-biotin, 2′F (nucleic acid)
chain 1: B1 chain 1 with C15G, G16C, G23C, C24G
chain 2: B1 chain 2 with G14C, C15G, G20C
chain 3: B1 chain 3 with C12G, C20G, G21C
modifications: chain 1: 3' {Biotin}, sugars by position and backbone not given here; chain 2: sugars by position and backbone not given here; chain 3: sugars by position and backbone not given here; RNA nanoparticle, 2'-fluoro modified
Molecule B6 came in with a TM value in series [9] of 53.8 °C.
